Activity calls are given as the source filed them.
Legend:
[1] = test system: HEK293; test: NOD1 signaling inhibitors, primary screen, cell-based, luminescence, uHTS (AID 1578); format: functional; conditions: Homo sapiens
[2] = test system: HEK293; test: NOD2 signaling inhibitors in MDP-stimulated cells, cell-based, uHTS, luminescence (AID 2001); format: functional; conditions: Homo sapiens
[3] = test system: HEK293; test: cells; format: functional, cell-based; conditions: Homo sapiens
[4] = test system: HEK293; test: cells; format: functional, cell-based; conditions: Homo sapiens; remark: listed apart in the source
[5] = biological target: 26S proteasome non-ATPase regulatory subunit 14 (Homo sapiens, UniProt O00487); test: inhibition of proteasome subunit RPN11 – biochemical, fluorescence polarization, uHTS hits, confirmation (AID 602368); format: functional
Sequence of 26S proteasome non-ATPase regulatory subunit 14 (O00487 whole entry, the tested form may be a part): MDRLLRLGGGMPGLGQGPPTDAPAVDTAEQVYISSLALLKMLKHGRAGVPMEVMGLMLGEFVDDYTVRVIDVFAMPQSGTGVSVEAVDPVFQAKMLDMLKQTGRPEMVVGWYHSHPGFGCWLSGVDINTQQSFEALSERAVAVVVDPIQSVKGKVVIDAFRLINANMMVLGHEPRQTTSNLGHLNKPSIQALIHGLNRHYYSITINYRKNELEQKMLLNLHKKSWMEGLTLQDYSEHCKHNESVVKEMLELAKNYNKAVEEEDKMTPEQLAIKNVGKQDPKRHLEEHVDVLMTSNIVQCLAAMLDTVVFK

[6] = biological target: T1, RNA-binding protein pos-1 (Caenorhabditis elegans, UniProt G5EF15); test: inhibitors of POS-1/mex-3 RNA binding, dose response, biochemical, fluorescence polarization (AID 1964);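 also: purified POS-1 fused to maltose binding protein made in E. coli; potency of compounds blocking POS-1 binding to fluorescent RNA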
T1 sequence (G5EF15 whole entry): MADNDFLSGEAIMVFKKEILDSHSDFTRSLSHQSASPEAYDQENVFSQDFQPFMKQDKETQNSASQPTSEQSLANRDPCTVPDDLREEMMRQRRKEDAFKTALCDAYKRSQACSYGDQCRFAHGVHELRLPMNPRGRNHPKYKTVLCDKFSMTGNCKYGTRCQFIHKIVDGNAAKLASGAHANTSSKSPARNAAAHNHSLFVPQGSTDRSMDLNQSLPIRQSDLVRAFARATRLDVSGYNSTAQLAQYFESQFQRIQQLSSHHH

[7] = biological target: Prothrombin (Bos taurus, UniProt P00735); test: thrombin inhibition, dose response, biochemical, fluorescence polarization, uHTS hits (AID 602369); format: functional
[8] = biological target: T2, Zinc finger protein mex-5 (Caenorhabditis elegans, UniProt Q9XUB2); test: MEX-5/TCR-2 RNA interaction inhibitors, dose response, biochemical, C. elegans, fluorescence polarization (AID 1960)
T2 sequence (Q9XUB2 whole entry): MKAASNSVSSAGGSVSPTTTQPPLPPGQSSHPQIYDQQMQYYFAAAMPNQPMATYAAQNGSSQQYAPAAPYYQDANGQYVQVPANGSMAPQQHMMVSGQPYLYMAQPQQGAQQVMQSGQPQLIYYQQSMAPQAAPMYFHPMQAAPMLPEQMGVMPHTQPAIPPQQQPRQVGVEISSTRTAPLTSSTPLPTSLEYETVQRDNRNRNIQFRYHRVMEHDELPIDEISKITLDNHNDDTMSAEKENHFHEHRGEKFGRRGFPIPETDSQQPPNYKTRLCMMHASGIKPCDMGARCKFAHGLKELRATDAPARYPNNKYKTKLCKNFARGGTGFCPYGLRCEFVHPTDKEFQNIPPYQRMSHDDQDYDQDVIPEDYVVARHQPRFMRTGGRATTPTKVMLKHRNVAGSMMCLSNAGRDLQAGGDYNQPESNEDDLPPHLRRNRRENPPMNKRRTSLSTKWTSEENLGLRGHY

[9] = biological target: 72 kDa type IV collagenase (Homo sapiens, UniProt P08253); test: Dose Response validation of uHTS RPN11 inhibitor hits using a MMP-2 Fluorescence assay.; format: functional
Sequence of 72 kDa type IV collagenase (P08253 whole entry): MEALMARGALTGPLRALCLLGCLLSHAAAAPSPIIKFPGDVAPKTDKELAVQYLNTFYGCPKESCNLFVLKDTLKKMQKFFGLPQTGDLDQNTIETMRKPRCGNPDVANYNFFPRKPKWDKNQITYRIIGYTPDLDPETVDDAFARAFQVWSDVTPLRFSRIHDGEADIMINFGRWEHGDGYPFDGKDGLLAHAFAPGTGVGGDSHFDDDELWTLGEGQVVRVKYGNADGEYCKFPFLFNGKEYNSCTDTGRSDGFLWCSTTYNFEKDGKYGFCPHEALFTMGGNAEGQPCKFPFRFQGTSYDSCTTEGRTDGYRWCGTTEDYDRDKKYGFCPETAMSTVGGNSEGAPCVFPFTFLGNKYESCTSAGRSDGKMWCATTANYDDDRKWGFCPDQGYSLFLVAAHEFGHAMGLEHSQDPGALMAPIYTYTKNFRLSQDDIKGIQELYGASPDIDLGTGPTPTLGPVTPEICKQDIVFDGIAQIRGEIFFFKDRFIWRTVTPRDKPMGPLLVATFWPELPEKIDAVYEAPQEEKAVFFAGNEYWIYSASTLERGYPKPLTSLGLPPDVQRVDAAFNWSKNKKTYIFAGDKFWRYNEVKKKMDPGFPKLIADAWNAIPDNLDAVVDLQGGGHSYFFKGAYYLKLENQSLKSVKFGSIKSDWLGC

[10] = test system: Escherichia coli; test: microbe, parasite or virus in culture
[11] = biological target: DNA (cytosine-5)-methyltransferase 1 (Homo sapiens, UniProt P26358); test: DNMT1 methyltransferase inhibitors, confirmation, biochemical, fluorescent molecular beacon (AID 602386); format: functional
Sequence of DNA (cytosine-5)-methyltransferase 1 (P26358 whole entry): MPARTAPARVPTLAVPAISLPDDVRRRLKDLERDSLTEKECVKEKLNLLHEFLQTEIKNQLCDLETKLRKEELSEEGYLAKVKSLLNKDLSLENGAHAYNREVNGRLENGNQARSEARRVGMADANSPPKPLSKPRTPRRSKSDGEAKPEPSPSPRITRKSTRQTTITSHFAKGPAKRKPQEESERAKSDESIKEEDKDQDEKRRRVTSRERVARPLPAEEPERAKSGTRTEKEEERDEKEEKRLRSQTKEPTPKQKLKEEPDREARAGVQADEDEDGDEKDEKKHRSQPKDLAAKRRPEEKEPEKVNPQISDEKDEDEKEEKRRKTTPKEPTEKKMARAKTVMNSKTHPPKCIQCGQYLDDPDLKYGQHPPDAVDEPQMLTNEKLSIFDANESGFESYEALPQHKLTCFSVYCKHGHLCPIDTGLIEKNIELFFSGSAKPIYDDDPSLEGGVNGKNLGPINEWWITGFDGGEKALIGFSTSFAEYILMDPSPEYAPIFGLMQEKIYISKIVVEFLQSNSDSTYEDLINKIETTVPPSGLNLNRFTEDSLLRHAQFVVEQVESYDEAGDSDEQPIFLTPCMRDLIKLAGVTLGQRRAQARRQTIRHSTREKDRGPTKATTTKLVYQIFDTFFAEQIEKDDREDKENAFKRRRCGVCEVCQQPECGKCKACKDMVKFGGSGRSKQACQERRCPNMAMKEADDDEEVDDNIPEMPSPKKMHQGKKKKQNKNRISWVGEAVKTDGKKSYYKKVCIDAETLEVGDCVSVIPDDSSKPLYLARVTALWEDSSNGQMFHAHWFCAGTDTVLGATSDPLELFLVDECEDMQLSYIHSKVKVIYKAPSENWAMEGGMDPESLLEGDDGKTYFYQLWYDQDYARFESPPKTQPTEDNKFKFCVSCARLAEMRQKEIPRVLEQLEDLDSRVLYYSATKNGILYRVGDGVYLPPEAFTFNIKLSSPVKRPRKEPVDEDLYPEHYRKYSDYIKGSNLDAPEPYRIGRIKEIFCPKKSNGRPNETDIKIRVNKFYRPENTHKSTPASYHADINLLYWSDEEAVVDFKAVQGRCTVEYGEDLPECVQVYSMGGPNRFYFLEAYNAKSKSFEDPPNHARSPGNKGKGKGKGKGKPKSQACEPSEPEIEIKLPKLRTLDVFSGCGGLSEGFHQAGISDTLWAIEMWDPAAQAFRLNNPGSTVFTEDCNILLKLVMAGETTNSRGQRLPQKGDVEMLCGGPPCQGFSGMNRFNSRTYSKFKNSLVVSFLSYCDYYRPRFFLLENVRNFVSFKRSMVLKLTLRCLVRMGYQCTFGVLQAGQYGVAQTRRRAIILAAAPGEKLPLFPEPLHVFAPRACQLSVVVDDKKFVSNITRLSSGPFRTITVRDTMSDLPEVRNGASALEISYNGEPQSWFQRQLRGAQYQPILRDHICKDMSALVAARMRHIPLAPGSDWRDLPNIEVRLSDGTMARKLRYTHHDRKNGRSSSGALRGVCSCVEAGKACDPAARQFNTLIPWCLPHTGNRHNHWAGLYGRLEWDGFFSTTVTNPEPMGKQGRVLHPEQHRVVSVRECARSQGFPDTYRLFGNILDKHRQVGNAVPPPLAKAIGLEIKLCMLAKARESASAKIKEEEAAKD

[12] = biological target: T3, Caspase-6 (Homo sapiens, UniProt P55212); test: human caspase-6 inhibitors, dose response, biochemical, VEID-R110 fluorescence, cherry-pick (AID 720632)
T3 sequence (P55212 whole entry): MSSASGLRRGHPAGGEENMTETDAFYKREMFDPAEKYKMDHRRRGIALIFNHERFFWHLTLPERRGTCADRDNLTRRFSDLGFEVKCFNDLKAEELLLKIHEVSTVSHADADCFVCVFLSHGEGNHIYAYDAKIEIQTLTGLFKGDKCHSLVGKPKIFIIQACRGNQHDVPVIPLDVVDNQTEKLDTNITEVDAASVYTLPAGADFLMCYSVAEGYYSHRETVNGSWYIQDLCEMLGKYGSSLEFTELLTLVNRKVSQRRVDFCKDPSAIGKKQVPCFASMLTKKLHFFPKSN

[13] = biological target: Melanocortin receptor 4 (Homo sapiens, UniProt P32245); format: functional, cell-based;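 also: Cell-based assay with luminescence read-out, confirmatory dose-response testing for agonist activity of biased ligands at MC4R; human U2OS cells with tagged receptor and beta-arrestin; potency of agonists that increase receptor coupling to beta-arrestin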
Sequence of Melanocortin receptor 4 (P32245 whole entry): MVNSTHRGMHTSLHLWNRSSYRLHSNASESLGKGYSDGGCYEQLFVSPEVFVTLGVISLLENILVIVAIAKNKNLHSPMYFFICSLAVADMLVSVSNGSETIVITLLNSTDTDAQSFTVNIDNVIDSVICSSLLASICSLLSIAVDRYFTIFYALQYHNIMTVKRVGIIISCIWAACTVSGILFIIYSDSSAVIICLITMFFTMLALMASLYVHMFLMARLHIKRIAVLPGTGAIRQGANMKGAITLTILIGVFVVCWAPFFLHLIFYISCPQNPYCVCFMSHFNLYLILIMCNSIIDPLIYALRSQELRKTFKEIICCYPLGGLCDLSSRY

[14] = Luminescence Cell-Based Dose Response HTS to Identify Inhibitors of 5'UTR Stem-Loop Driven Prion Protein mRNA Translation in H4 Neuroglioblastoma Cells. [Related pubchem assays: 1827 (Project Summary), 1813 (Primary HTS)]; format: functional
[15] = biological target: T4, Heat shock factor protein 1 (Mus musculus, UniProt P38532); test: HSF1 potentiators in luciferase reporter cells, confirmation, cell-based, NIH3T3, luminescence, dose retest (AID 435004); format: functional;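 also: stress induced by proteasome inhibitor MG132 added 30 min after compound; luciferase reporter driven by HSF1 response element in NIH3T3 cells; actives raise luminescence as potentiators of the MG132 stress response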
T4 sequence (P38532 whole entry): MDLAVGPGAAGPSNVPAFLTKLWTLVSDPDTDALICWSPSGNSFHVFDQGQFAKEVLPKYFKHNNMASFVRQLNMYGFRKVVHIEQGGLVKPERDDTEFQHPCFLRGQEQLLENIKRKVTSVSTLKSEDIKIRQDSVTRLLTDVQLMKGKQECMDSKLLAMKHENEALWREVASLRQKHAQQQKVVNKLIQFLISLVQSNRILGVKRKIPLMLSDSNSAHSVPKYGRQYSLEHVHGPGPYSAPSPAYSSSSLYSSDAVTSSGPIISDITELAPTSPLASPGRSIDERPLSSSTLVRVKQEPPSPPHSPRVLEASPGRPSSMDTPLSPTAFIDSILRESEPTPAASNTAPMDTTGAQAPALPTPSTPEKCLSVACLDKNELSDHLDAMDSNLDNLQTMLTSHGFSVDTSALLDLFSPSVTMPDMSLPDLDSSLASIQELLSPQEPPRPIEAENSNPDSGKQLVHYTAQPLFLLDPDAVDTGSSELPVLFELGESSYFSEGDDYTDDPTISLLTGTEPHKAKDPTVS

[16] = inhibitors of SNCA 5'UTR-driven reporter translation, confirmation, H4 neuroglioma cells, luminescence (AID 1988); format: functional, cell-based
[17] = test system: INS1; test: beta cell apoptosis inhibitors, cytokine rescue, dose response, luminescence, retest (AID 449756); format: functional, cell-based; conditions: Rattus norvegicus;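 also: cell death triggered by IL-1 beta plus TNF-alpha plus IFN-gamma mixture; protective hits raise ATP signal compared with cytokine alone wells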
[18] = cytotoxicity in HEK-293T cells, dose response, cytotoxicity control for TCR NF-kB inhibitor project, luminescence, T-cell screen hits (AID 489026); format: functional, cell-based;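 also: cells exposed to compound about 14 hours before the viability readout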
[19] = inhibitors of firefly luciferase expression or activity, dose response, H4 neuroglioma cells, luminescence (AID 1990); format: functional, cell-based

CCc1cc(C(=O)NC2CCCN(Cc3ccccc3F)C2)n(C)n1 (configuration not stated)
EC50 [1]: 9.78 µM (active) | IC50 [2]: > 20 µM (inactive) | IC50 [3]: 16.5 µM (active) | IC50 [4]: > 20 µM (inactive)

Cc1cc(C)c2c(=O)[nH]c(=O)n(Cc3ccccc3)c2n1
IC50 [5]: 38.4 µM (active) | EC50 [6]: > 300 µM (not active) | IC50 [7]: 46.6 µM (active) | EC50 [8]: > 300 µM (not active) | IC50 [9]: > 100 µM (inactive)

CC(C)(C)OC(=O)NCC(=O)N1CCC(C(=O)O)CC1
AC50 [10]: 26.6 µM (active)

COc1ccc(S(=O)(=O)N2CCN(C(=O)C3COc4ccccc4O3)CC2)cc1 (configuration not stated)
IC50 [11]: 5.82 µM (active) | AC50 [12]: 685 nM (active)

COc1cc(/C=C2/C(=N)N3C(=NC2=O)SN=C3S(C)(=O)=O)ccc1OC(=O)c1ccco1
IC50 [5]: 31.9 µM (active) | IC50 [7]: 34.4 µM (active) | IC50 [9]: 94.8 µM (active)

CC(C)c1ccc(NS(=O)(=O)c2ccc(-n3cccn3)cc2)cc1
EC50 [13]: > 89.2 µM (inactive)

O=[N+]([O-])c1ccc(-c2nc(C(Cl)Cl)c3ccccc3n2)cc1
EC50 [14]: 407 nM (active) | EC50 [15]: > 260 µM (inconclusive) | EC50 [16]: 336 nM (active) | AC50 [17]: 1.89 µM (active) | IC50 [18]: > 80 µM (inactive) | EC50 [19]: 1.79 µM (active)
